Test results published in patent US7947726B2, “Non-steroidal ligands for the glucocorticoid receptor, and compositions thereof” (The Regents of the University of California, priority 2002, dated 2011).
Values joined by “and” are separate entries in the source; they are usually repeats but may differ in a detail not shown here. Identical values can stand only once.

What was measured:
MR = molecular target: T1, MR (Homo sapiens, UniProt P08235); experiment: MR activation (max fold activation); type: cell-based; conditions: Table 4
T1 sequence (P08235 1-984): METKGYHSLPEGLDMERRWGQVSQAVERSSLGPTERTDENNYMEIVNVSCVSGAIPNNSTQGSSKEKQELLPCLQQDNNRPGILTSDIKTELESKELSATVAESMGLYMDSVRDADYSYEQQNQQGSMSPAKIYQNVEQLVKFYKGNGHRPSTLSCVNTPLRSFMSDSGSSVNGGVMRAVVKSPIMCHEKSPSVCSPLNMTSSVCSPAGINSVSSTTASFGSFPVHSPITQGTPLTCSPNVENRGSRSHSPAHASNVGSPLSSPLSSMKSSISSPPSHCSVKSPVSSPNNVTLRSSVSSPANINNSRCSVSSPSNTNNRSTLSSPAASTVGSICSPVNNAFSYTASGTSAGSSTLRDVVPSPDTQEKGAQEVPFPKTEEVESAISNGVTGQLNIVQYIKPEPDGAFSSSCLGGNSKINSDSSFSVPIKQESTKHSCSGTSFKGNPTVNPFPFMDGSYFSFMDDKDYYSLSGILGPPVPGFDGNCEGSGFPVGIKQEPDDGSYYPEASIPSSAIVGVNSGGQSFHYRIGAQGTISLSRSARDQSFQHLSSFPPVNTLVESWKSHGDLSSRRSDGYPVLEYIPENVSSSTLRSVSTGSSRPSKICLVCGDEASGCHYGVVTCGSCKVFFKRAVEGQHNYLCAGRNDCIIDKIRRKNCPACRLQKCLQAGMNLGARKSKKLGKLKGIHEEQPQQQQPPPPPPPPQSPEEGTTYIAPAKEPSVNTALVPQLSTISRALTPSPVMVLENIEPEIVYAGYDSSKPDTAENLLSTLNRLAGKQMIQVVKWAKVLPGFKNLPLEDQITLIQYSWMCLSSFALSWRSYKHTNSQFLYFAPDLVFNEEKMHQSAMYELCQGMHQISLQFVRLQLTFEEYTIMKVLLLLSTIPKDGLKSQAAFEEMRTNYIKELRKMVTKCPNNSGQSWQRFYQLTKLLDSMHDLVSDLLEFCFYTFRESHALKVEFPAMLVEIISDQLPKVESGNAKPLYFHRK

GR = molecular target: T2, GR (Rattus norvegicus, UniProt P06536); experiment: AP-1 repression luciferase assay in U2OS cells stably transfected with rat GR; type: cell-based; conditions: Table 5, TPA-stimulated U2OS cells; for EC50: read-out: Repression AP-1 pot (EC50); for Emax: U2OS, 12 h, read-out: Repression AP-1 % max repression
T2 construct: expressed in transfected cells; gift of Keith Yamamoto
T2 sequence (P06536 1-795): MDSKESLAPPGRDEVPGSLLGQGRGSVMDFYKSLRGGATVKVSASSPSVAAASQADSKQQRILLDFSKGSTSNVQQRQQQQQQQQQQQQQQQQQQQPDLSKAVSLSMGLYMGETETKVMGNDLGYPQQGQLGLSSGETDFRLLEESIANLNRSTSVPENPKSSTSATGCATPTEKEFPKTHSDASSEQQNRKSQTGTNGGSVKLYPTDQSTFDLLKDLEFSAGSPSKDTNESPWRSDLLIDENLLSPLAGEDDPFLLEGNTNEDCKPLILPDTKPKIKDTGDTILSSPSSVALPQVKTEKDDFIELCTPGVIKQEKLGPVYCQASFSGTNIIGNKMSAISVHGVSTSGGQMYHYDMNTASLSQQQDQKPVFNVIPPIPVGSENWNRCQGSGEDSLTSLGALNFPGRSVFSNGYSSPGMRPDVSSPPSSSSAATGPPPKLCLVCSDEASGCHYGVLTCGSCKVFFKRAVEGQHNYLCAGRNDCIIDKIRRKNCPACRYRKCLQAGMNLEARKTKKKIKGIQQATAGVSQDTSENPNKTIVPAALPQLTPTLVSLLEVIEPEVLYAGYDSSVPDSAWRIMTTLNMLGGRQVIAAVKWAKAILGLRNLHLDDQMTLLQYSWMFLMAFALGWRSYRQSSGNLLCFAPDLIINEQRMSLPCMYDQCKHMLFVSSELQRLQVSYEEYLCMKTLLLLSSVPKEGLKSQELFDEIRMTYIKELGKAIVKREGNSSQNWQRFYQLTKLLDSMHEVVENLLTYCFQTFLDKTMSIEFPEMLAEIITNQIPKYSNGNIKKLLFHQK
Method: For API repression assays, U2OS cells stably transfected with rat GR were grown in similar media as for CV-1 cells with the exception of the FBS concentration, which was 10% and the only antibiotic was […]. Cells were plated and transfected in a similar fashion, except for plasmids, which in this case were 50 ng/well AP1-Luc and 10 ng/well β-galactosidase. Post-transfection, cells were incubated with either 50 ng/mL TPA (Phorbol 12-myristate 13-acetate), or 50 ng/mL TPA and various hormone dilutions in 10% charcoal treated FBS media. The cells were incubated for 12 h, and the lysis, β-galactosidase assay, and luciferase assay were performed as previously described.

MR max fold activation (MR)	EC50 (GR)	Emax (GR) [%]	Compound
6.2 ± 0.9	19.1 nM and 14.7 nM	75	CC12Cc3cnn(-c4ccc(F)cc4)c3C=C1CCCC2C(O)c1ccsc1 (stereo not drawn) [Compound 238, [1-(4-Fluoro-phenyl)-4a-methyl-4,4a-5,6,7,8-hexahydro-1H-benzo[f]indazol-5-yl]-thiophen-3-yl-methanol]
3.2 ± 0.9	6 nM	77	Cc1cc(O)cc(C)c1C(O)C1CCCC2=Cc3c(cnn3-c3ccc(F)cc3)CC21C (stereo not drawn) [Compound 227, 4-{[1-(4-Fluoro-phenyl)-4a-methyl-4,4a,5,6,7,8-hexahydro-1H-benzo[f]indazol-5-yl]-hydroxy-methyl}-3,5-dimethyl-phenol]
5.0 ± 1.5	4.9 nM	80	CC12Cc3cnn(-c4ccc(F)cc4)c3C=C1CCCC2C(O)c1cccc2[nH]ccc12 (stereo not drawn) [Compound 237, [1-(4-Fluoro-phenyl)-4a-methyl-4,4a,5,6,7,8-hexahydro-1H-benzo[f]indazol-5-yl]-(1H-indol-4-yl)-methanol]
